Source: patent US4913907A, “Porphycene anti-cancer agents and treatment methods” (Cytopharm, Inc., priority 1988, dated 1990)
Read-outs that look alike come from different tables or passages of the source. Each block holds one compound with its values, some of them ahead of it.

Legend:
[1] = cited from earlier work
[2] = system: normal skin; test: Phototherapy, photoinduced damage of irradiated normal skin; assay type: in vivo, Female Balb/c mice
Method: (§1) Each mouse was intravenously injected with 2 mg./kg. of 2,7,12,17-tetra-n-propylporphycene (TPP) incorporated into small umilamellar liposomes of dipalmitoyl-phosphatidylcholine (DPPC), prepared according to the procedures of Example 2, on the seventh day after transplantation. At this time the diameter of the tumor was approximately 0.8 cm.
(§2) 24 hours after TPP injection, the tumor area was exposed to 600-690 nm. light isolated by optical filtration from the emission of a 250 W quartz-halogen lamp through a set of optical filters (Teclas, Lugano, Switzerland). The light beam was focused into a bundle of optical fibers having an external diameter of 6 mm. The tip of the fiber was kept at a distance of 1 cm from the tissue surface. The lamp was operated at a dose-rate of 230 mW/cm^2, and the total delivered light dose was 150 J/cm^2 or 300 J/cm^2.
An equal area of normal skin on the left hind leg was irradiated in each mouse immediately after tumor irradiation using an identical protocol.

[3] = Distribution and clearance in a mouse model (statement in the description); assay type: in vivo
[4] = system: MS-2 fibrosarcoma; test: Phototherapy of tumor-bearing mice, tumor response; assay type: in vivo, Female Balb/c mice
Method: By the seventh day after transplantation, the tumors had reached a diameter of approximately 0.8 cm.
as §1, §2

[5] = Tissue analysis: recovery of TPP from serum and tissues after injection; assay type: in vivo, mice; details: 2 mg/kg; for concentration at 3 h / concentration at 24 h: mouse, iv, average of 6 mice, maximum deviation ±20%; for concentration at 3 h: 3 hours after injection; for concentration at 24 h: 24 hours after injection
Method: At each of 3 hours and 24 hours after injection, six mice were sacrificed by exposure to ether vapor, and the serum or specific tissue were removed. About 2 mL of blood was taken intracardially and centrifuged for 15 minutes at 3,000 rpm to remove the erythrocytes. The serum was collected, diluted with 2% aqueous SDS and assayed for TPP content spectrophotofluorimetrically (λex =560 nm). The fluorescence emitted in the 580-740 nm interval was converted into TPP concentration by interpolation with a calibration plot.
The tumor and predetermined normal tissues were removed, washed twice with PBS, and a weighed amount of tissue (approximately 200 mg) was finely minced and homogenized in a Potter vessel with 4 mL chloroform. The dispersion was centrifuged at 3,000 rpm for 15 minutes; the supernatant was collected and its TPP content was estimated spectrophotofluorimetrically as described above. Rehomogenization of the sediment under the same conditions gave less than 3% of the TPP extracted in the original step. […]
The recovery of TPP from serum and various tissues of the tumor-bearing mice at 3 hours and 24 hours after injection are shown in Table 1. The samples from each animal were analyzed separately, and are table values represent the average recovery data from the single tissues of 6 mice. The maximum deviation from the reported values was ±20%.

[6] = Solubility; assay type: physicochemical
[7] = 2 mg/kg i.v., 300 J/cm^2 at 24 hours after TPP injection
[8] = brain, read-out: Recovery, brain
[9] = liver, read-out: Recovery, liver
[10] = muscle, read-out: Recovery, muscle
[11] = tumor, read-out: Recovery, tumor

drug clearance route ([3]; mouse model): via the liver rather than by the kidneys
concentration at 3 h [5, 8]: < 10 ng/g
concentration at 24 h [5, 8]: < 10 ng/g
concentration at 3 h ([5]; kidneys, read-out: Recovery, kidneys): 1250 ng/g
concentration at 3 h [5, 9]: 13000 ng/g
concentration at 24 h [5, 9]: 11100 ng/g
concentration at 3 h [5, 10]: 140 ng/g
concentration at 24 h [5, 10]: 90 ng/g
concentration at 24 h ([5]; serum, read-out: Recovery, serum): 25600 ng/mL
concentration at 3 h ([5]; skin, read-out: Recovery, skin): 290 ng/g
concentration at 24 h ([5]; skin, read-out: Recovery, skin): 440 ng/g
concentration at 24 h ([5]; spleen, read-out: Recovery, spleen): 2940 ng/g
concentration at 3 h [5, 11]: 690 ng/g
concentration at 24 h [5, 11]: 1500 ng/g
recovery from the tumor ([5]; tumor tissue, time not stated): approximately 1 μg/g
Structure (SMILES): CCCC1=Cc2nc1ccc1[nH]c(cc1CCC)c1nc(ccc3[nH]c2cc3CCC)C(CCC)=C1 [TPP, 2,7,12,17-tetra-n-propylporphycene]
absorption above 620 nm [1]: high absorption above 620 nm
erythema, disappearance ([2]; irradiated TPP-treated mice): disappeared within about one week
photoinduced damage at the level of the normal skin ([2]; irradiated TPP-treated mice, most animals, mainly erythema): developed some photoinduced damage at the level of the normal skin
erythema, diameter ([2]; irradiated TPP-treated mice, generally): less than 0.3 cm
photosensitivity at the irradiated normal skin ([2]; left hind leg, identical irradiation protocol): Some photosensitivity was also observed
tumor uptake as compared to skin or muscle tissue ([3]; 24 hours post-injection): concentrate preferentially in tumor tissue as compared to skin or muscle tissue
uptake by the brain ([3]; mouse model): little or no porphycene uptake by the brain
onset of tumor necrosis ([4]; 2 mg/kg i.v. in DPPC liposomes, 300 J/cm^2 of 600-690 nm light at 24 hours after TPP injection): massive tumor necrosis
tumor necrosis ([4]; 2 mg/kg i.v., 150 J/cm^2 of red light at 24 hours after TPP injection): equally deep necrosis, however less extensive
eschar formation complete within [4, 7]: ≤ 3 days
time until depth of necrosis reached bone [4, 7]: about 7 days

Structure (SMILES): C1=Cc2nc1ccc1ccc([nH]1)c1nc(ccc3ccc2[nH]3)C=C1 [porphycene]
absorption above 620 nm [1]: high absorption above 620 nm
solubility in water and pharmaceutically suitable solvents [6]: not soluble in water and pharmaceutically suitable solvents
